Data from a melting point compilation (Tetko et al.; mined from patent text by program, amines drawn as free bases though some values may be those of a salt).

melting point [°C]	SMILES
94	CC(=O)Nc1ccc(OC(F)(F)F)cc1-c1ccccc1
198	COc1ccc(S(=O)(=O)C(Nc2c(Br)cc(C)cc2C(=O)O)c2cccnc2)cc1 (stereo not drawn)
54 to 56	CCCCCCCCCCCCCCCCCCOC(=O)C(N)Cc1ccc(N)cc1 (stereo not drawn)
151 to 152	COc1ccc(O)c(C2C(=O)N(Cc3ccc(C(F)(F)F)o3)c3cccc(Cl)c32)n1 (stereo not drawn)
268	COc1ccc(-c2nc3cnncc3[nH]2)c(OCC#N)c1
67 to 69	CCCCCCCCCCCCCCCCCCSP(=S)(C1CCCCC1)C1CCCCC1
180 to 181	Cc1oc(-c2ccccc2)nc1COc1ccc(Sc2nc(CC(=O)O)cs2)cc1
182 to 183	CCCCc1cn(CCC2CC2)c(=O)n1Cc1ccc(-c2ccccc2-c2nnn[nH]2)nc1
41 to 42	CCCS(=O)(=O)c1ncc(C(F)(F)F)cc1Cl
178 to 180	COc1ccc(S(=O)(=O)N2CCc3cccc(-c4ccc(N(C)C)cc4)c32)cc1
136 to 142	COC(=O)c1sc2c(c1N)-c1ccccc1CN2c1ccccc1
215 to 217	Cn1c(=O)c(-c2c(Cl)cccc2Cl)cc2cnc(Nc3cccc(CO)c3)nc21
149 to 151	CC(C)c1cccc(C(C)C)c1NC(=O)CNC(c1ccccc1)c1cccc2ccccc12 (stereo not drawn)

Further lines, the compound ahead of its results:

SMILES	melting point [°C]
CCN1CCc2ccc(Nc3ncc(Cl)c(NCCNS(C)(=O)=O)n3)cc2CC1	146
CCc1cccc(NC(=O)C(C#N)=C(C)N(C)C)c1	98 to 100
CCOP(=O)(OCC)C(Sc1cc(C(C)(C)C)c(O)c(C(C)(C)C)c1)P(=O)(OCC)OCC	78 to 80
NC(=S)c1cn(COC(CO)CO)c2ncnc(N)c12	180 to 181
CCCc1c(O)c(Cl)cc(C(C)=O)c1O	96
CC(=O)OCCNc1ccc(Cl)cc1C(=O)c1ccccc1F	48 to 55
CCNCC1CCN(c2c(F)c(F)c3c(=O)c(C(=O)O)cn(C4CC4)c3c2F)C1 (stereo not drawn)	247 to 248
Cc1ccc(C(=S)c2cc(Cl)cc3c2NC(=O)C3)cc1	179 to 181
CCOC(=O)C1=C(C)NC(c2ccc(C)cc2)=C(C(=O)OCC)C1c1cccc([N+](=O)[O-])c1 (stereo not drawn)	149 to 150
COC(=O)c1ccc(C(=O)c2c(C)c(OCc3cccc(OC)c3)c3ccccn23)cc1	106
COc1ccc2c(c1)N=C(N1CCN(C)CC1)c1cccc3c1N2CC3	152 to 155
CCC(=O)N(C)c1cccc(-c2ccc3nnc(N)n3n2)c1	190 to 191
O=C(CCN1CCN(c2ccccc2)CC1)c1ccc2oc3ccc(C(=O)CCN4CCN(c5ccccc5)CC4)cc3c(=O)c2c1	199 to 201
O=C(NCC#CCN1CCOCC1)N1c2ccccc2-c2noc3c2C1CCC3 (stereo not drawn)	186
CC(=O)CSc1cc(C(C)(C)C)c(O)c(C(C)(C)C)c1	105 to 106
CC1(O)CC(C)(C)N(N=Cc2ccccc2)C(C)(C)C1	84
CC(C)(C)OC(=O)C1CCCN2CC(CBr)C(=O)N12 (stereo not drawn)	88 to 89
CCCOc1cc(OC)c2c(c1)C(=O)c1cccc(OC(C)C)c1-2	114 to 116
O=S(=O)(Oc1ccc(Cl)c2cccnc12)C(F)(F)F	80 to 83
C[C@H]1CC[C@H](Nc2nccc(-n3ncc4c([N+](=O)[O-])cccc43)n2)CC1	254 to 255
O=Cc1c2ccccc2c(CO)c2ccccc12	182 to 184
CC12CCC3C(CCC4=CC(=O)CCC43CO)C1CCC2O (stereo not drawn)	205 to 207
Cc1c(C(=O)Nc2ccc(N3CCC(N4CCOCC4)CC3)c(C(F)(F)F)c2)cnn1-c1ccc(Cl)cc1	193 to 194
CN(C)C(=O)c1nc2n(n1)-c1ccc(Cl)cc1C(c1ccccc1)=NC2	135 to 137
CC(N)C(C)n1ncn(-c2ccc(N3CCN(c4ccc(O)cc4)CC3)cc2)c1=O (stereo not drawn)	237
